Test results taken from the supplement of paper PMC11962398.

What was measured:
BI-2493 [1] = compound: T1, C[C@H]1CNCCN1c1nccc(-c2noc3c2CCC[C@@]32CCCc3sc(N)c(C#N)c32)n1 [BI-2493]; assay: 1 - AUC of viability dose-response curve (sensitivity) (fraction); higher = more sensitive; settings: 5 days
Experimental: (§1)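 PRISM pooled barcoded cancer cell line viability screen (Broad Institute) with BI-2493 at 8 doses in threefold dilutions from 0.00457 to 10 µmol/L, 5-day treatment; curves fitted per cell line. IC50 is undefined (placeholder) for resistant lines. AUC is capped at 1, and sensitivity is reported as 1 − AUC.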

BI-2493 [2] = compound: T1, BI-2493; settings: 5 days
Experimental: as §1

Test System | 1 - AUC of viability dose-response curve (BI-2493 [1]) | IC50 of cell viability (BI-2493 [2]) [µM]
TM31_CENTRAL_NERVOUS_SYSTEM | 0.0846 | 8.57
TM87_SOFT_TISSUE | 0.26 | 5.06
TOV21G_OVARY | 0.114 | 5.42
TT1TKB_LARGE_INTESTINE | 0.312 | 1.08
TT2609C02_THYROID | 0.00366 | > 10
TTC442_SOFT_TISSUE | 0.0621 | 5.84
TTC549_SOFT_TISSUE | 0.113 | 5.34
TTC642_SOFT_TISSUE | 0.0875 | 7.08
TTC709_SOFT_TISSUE | 0.16 | 4.96
TT_OESOPHAGUS | 0.191 | 5.9
TT_THYROID | 0.0835 | 6.45
TUHR4TKB_KIDNEY | 0.123 | 3.62
TYKNU_OVARY | 0.0105 | 9.48
U2OS_BONE | 0.215 | > 10
U87MG_CENTRAL_NERVOUS_SYSTEM | 0.111 | > 10
U118MG_CENTRAL_NERVOUS_SYSTEM | 0.0721 | 6.46
U178_CENTRAL_NERVOUS_SYSTEM | 0.139 | 7.8
U266B1_HAEMATOPOIETIC_AND_LYMPHOID_TISSUE | 0.0732 | 7.47
U343_CENTRAL_NERVOUS_SYSTEM | 0.0705 | 6.54
U937_HAEMATOPOIETIC_AND_LYMPHOID_TISSUE | 0.17 | 3.77

Test System | 1 - AUC of viability dose-response curve (BI-2493 [1]) | IC50 of cell viability (BI-2493 [2]) [µM]
U2904_HAEMATOPOIETIC_AND_LYMPHOID_TISSUE | 0.0108 | 9.63
U2973_HAEMATOPOIETIC_AND_LYMPHOID_TISSUE | 0.33 | 0.921
UACC62_SKIN | 0.0436 | 9.21
UACC257_SKIN | 0.0407 | 7.78
UBLC1_URINARY_TRACT | 0.137 | 4.3
UMRC3_KIDNEY | 0.106 | 4.74
UMRC7_KIDNEY | 0.0724 | 6.09
UMUC1_URINARY_TRACT | 0.226 | 2.29
UMUC5_URINARY_TRACT | 0.0622 | 7.6
UMUC7_URINARY_TRACT | 0.14 | > 10
UMUC10_URINARY_TRACT | 0.0119 | 9.49
UMUC11_URINARY_TRACT | 0.101 | 6.87
UO31_KIDNEY | 0.0602 | 9.54
UPCISCC072_UPPER_AERODIGESTIVE_TRACT | 0.0294 | 8.57
UPCISCC111_UPPER_AERODIGESTIVE_TRACT | 0.158 | 4.12
UPCISCC116_UPPER_AERODIGESTIVE_TRACT | 0.118 | 5.74
UW228_CENTRAL_NERVOUS_SYSTEM | 0.0946 | 4.79
VAESBJ_SOFT_TISSUE | 0.00971 | 9.61
VAL_HAEMATOPOIETIC_AND_LYMPHOID_TISSUE | 0.136 | 3.46
VMCUB1_URINARY_TRACT | 0.15 | 3.76

Test System | 1 - AUC of viability dose-response curve (BI-2493 [1]) | IC50 of cell viability (BI-2493 [2]) [µM]
VMRCRCW_KIDNEY | 0.0854 | 5.59
VMRCRCZ_KIDNEY | 0.0774 | 6.92
WAOSEL_HAEMATOPOIETIC_AND_LYMPHOID_TISSUE | 0.00836 | 9.74
WERIRB1_AUTONOMIC_GANGLIA | 0.052 | 9.33
WM88_SKIN | 0.0214 | 8.79
WM793_SKIN | 0.0739 | 5.47
WM983B_SKIN | 0.038 | 7.98
WM2664_SKIN | 0.0151 | 9.22
WSUDLCL2_HAEMATOPOIETIC_AND_LYMPHOID_TISSUE | 0.156 | 4.99
YAPC_PANCREAS | 0.287 | 2.97
YD8_UPPER_AERODIGESTIVE_TRACT | 0.0906 | > 10
YD10B_UPPER_AERODIGESTIVE_TRACT | 0.0787 | 5.08
YD15_SALIVARY_GLAND | 0.0555 | 6.99
YD38_UPPER_AERODIGESTIVE_TRACT | 0.088 | 6.6
YH13_CENTRAL_NERVOUS_SYSTEM | 0.0914 | > 10
YKG1_CENTRAL_NERVOUS_SYSTEM | 0.0786 | 9.17
YSCCC_BILIARY_TRACT | 0.104 | 5.65
ZR751_BREAST | 0.1 | 4.57
